Measurements: patent publication US4921850A, “3-propenylcephem derivative” (Eisai Co., Ltd., priority 1986, dated 1990)
Values after ≈ are worked out from the molar mass of the structure shown. Where two headings read alike, the source gives them in different places.

Legend:
Assay in all cases: Anti-bacterial activity (MIC), agar dilution
Assay type in all cases: cell-based
[1] = test system: Morganella morganii EP-14; conditions: 37° C., read-out: MIC
Outline: (§1)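 Read-out is MIC (μg/ml) after 18 hours at 37° C on Mueller-Hinton agar with twofold antibiotic series. Inoculum: overnight broth cultures diluted to ~10^6 CFU/ml, spotted.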

[2] = test system: Escher. coli NIHJ; conditions: Escherichia coli, 18 h
Outline: as §1

[3] = test system: Kleb. pneumoniae EK-6; conditions: Klebsiella pneumoniae, Kleb. pneumoniae EK-6, agar dilution, about 10^6 CFU/ml, 18 hours, 37° C., read-out: MIC
Outline: as §1

[4] = test system: Pseud. aeruginosa EP-01; conditions: Pseudomonas aeruginosa, Pseud. aeruginosa EP-01, agar dilution, about 10^6 CFU/ml, 18 hours, 37° C., read-out: MIC
Outline: as §1

[5] = test system: Ser. marcescens ES-75; conditions: Serratia marcescens, ES75, 18 h
Outline: as §1

[6] = test system: Staph. aureus 209-P; conditions: Staphylococcus aureus, 209P, 18 h
Outline: as §1

[7] = Morganella morganii, EP14, 18 h, about 10^6 CFU/ml
[8] = Escher. coli NIHJ, agar dilution, about 10^6 CFU/ml, 18 hours, 37° C., read-out: MIC
[9] = Ser. marcescens ES-75, agar dilution, about 10^6 CFU/ml, 18 hours, 37° C., read-out: MIC
[10] = Staph. aureus 209-P, agar dilution, about 10^6 CFU/ml, 18 hours, 37° C., read-out: MIC

Row | SMILES | MIC [1, 7] | MIC [2, 8] | MIC ([3]; EK6, 18 h) | MIC ([4]; EP01, 18 h) | MIC [5, 9] | MIC [6, 10] | MIC ([1]; EP14, about 10^6 CFU/ml, 18 hours) | MIC [2] | MIC ([3]; EK6) | MIC ([4]; EP01) | MIC [5] | MIC [6]
1 | NC(=O)C[N+]1(C/C=C/C2=C(C(=O)[O-])N3C(=O)[C@@H](NC(=O)/C(=N\OCF)c4nsc(N)n4)[C@H]3SC2)CCC(C(N)=O)CC1 (stereo partly drawn) [Example 40] | ≤ 0.025 µg/mL | ≤ 0.025 µg/mL | ≤ 0.025 µg/mL | 0.8 µg/mL (≈ 1.28 µM) | ≤ 0.025 µg/mL | 0.4 µg/mL (≈ 0.639 µM) |  |  |  |  |  | 
2 | CC[N+](C)(C/C=C/C1=C(C(=O)[O-])N2C(=O)[C@@H](NC(=O)/C(=N\OCF)c3nsc(N)n3)[C@H]2SC1)CC(N)=O (stereo partly drawn) [Example 1, 7β-[2-(5-Amino-1,2,4-thiadiazol-3-yl)-(Z)-2-fluoromethoxyiminoacetamido]-3-[(E)-3-(carbamoylmethylethylmethylammonio)-1-propen-1-yl]-3-cephem-4-carboxylate] |  |  |  |  |  |  | ≤ 0.025 µg/mL | ≤ 0.025 µg/mL | ≤ 0.025 µg/mL | 0.8 µg/mL (≈ 1.44 µM) | 0.1 µg/mL (≈ 0.18 µM) | 0.2 µg/mL (≈ 0.359 µM)
3 | N#CC[N+]1(C/C=C/C2=C(C(=O)[O-])N3C(=O)[C@@H](NC(=O)/C(=N\OCF)c4nsc(N)n4)[C@H]3SC2)CCCC1 [Example 14] | ≤ 0.025 µg/mL |  | ≤ 0.025 µg/mL | 0.8 µg/mL (≈ 1.45 µM) | 0.05 µg/mL (≈ 0.0908 µM) | 0.2 µg/mL (≈ 0.363 µM) |  | ≤ 0.025 µg/mL |  |  |  | 
4 | C[N+](C)(C/C=C/C1=C(C(=O)[O-])N2C(=O)[C@@H](NC(=O)/C(=N\OCF)c3nsc(N)n3)[C@H]2SC1)Cc1nnco1 [Example 120, 7β-[2-(5-Amino-1,2,4-thiadiazol-3-yl)-(Z)-2-fluoromethoxyiminoacetamido]-3-[(E)-3-[(1,3,4-oxadiazol-2-yl)methyldimethylammonio]-1-propen-1-yl]-3-cephem-4-carboxylate] | ≤ 0.025 µg/mL | ≤ 0.025 µg/mL | ≤ 0.025 µg/mL | 0.8 µg/mL (≈ 1.41 µM) | 0.05 µg/mL (≈ 0.0881 µM) | 0.2 µg/mL (≈ 0.352 µM) |  |  |  |  |  | 
5 | NC(=O)N1CC[N+](C/C=C/C2=C(C(=O)[O-])N3C(=O)[C@@H](NC(=O)/C(=N\OCF)c4nsc(N)n4)[C@H]3SC2)(CC(O)CO)CC1 (stereo partly drawn) [Example 30] | 0.05 µg/mL (≈ 0.0777 µM) | 0.05 µg/mL (≈ 0.0777 µM) | 0.05 µg/mL (≈ 0.0777 µM) | 1.56 µg/mL (≈ 2.42 µM) | 0.2 µg/mL (≈ 0.311 µM) | 0.4 µg/mL (≈ 0.621 µM) |  |  |  |  |  | 
6 | C[N+](C)(C/C=C/C1=C(C(=O)[O-])N2C(=O)[C@@H](NC(=O)/C(=N\OCF)c3nsc(N)n3)[C@H]2SC1)CC(=O)NCCO [Example 75] | 0.05 µg/mL (≈ 0.0852 µM) | 0.05 µg/mL (≈ 0.0852 µM) | 0.05 µg/mL (≈ 0.0852 µM) | 1.56 µg/mL (≈ 2.66 µM) | 0.2 µg/mL (≈ 0.341 µM) | 0.4 µg/mL (≈ 0.682 µM) |  |  |  |  |  | 
7 | COCC[N+](C)(C)C/C=C/C1=C(C(=O)[O-])N2C(=O)[C@@H](NC(=O)/C(=N\OCF)c3nsc(N)n3)[C@H]2SC1 [Example 99] | ≤ 0.025 µg/mL | ≤ 0.025 µg/mL | ≤ 0.025 µg/mL | 1.56 µg/mL (≈ 2.87 µM) | ≤ 0.025 µg/mL | 0.2 µg/mL (≈ 0.368 µM) |  |  |  |  |  | 
8 | CN1CCC[N+]1(C)C/C=C/C1=C(C(=O)[O-])N2C(=O)[C@@H](NC(=O)/C(=N\OCC#N)c3nsc(N)n3)[C@H]2SC1 (single isomer, unassigned) [Example 160-A] | 0.05 µg/mL (≈ 0.0913 µM) | ≤ 0.025 µg/mL | ≤ 0.025 µg/mL | 0.8 µg/mL (≈ 1.46 µM) | 0.1 µg/mL (≈ 0.183 µM) | 0.1 µg/mL (≈ 0.183 µM) |  |  |  |  |  | 
9 | C[N+](C)(C/C=C/C1=C(C(=O)[O-])N2C(=O)[C@@H](NC(=O)/C(=N\OCF)c3nsc(N)n3)[C@H]2SC1)CC(=O)NO [Example 72] | ≤ 0.025 µg/mL | ≤ 0.025 µg/mL | ≤ 0.025 µg/mL | 0.8 µg/mL (≈ 1.43 µM) | ≤ 0.025 µg/mL | 0.4 µg/mL (≈ 0.716 µM) |  |  |  |  |  | 
10 | Nc1nc(/C(=N/OCF)C(=O)N[C@@H]2C(=O)N3C(C(=O)[O-])=C(/C=C/C[N+]4(CCO)CCOCC4)CS[C@H]23)ns1 [Example 37] | 0.05 µg/mL (≈ 0.0875 µM) | 0.05 µg/mL (≈ 0.0875 µM) | ≤ 0.025 µg/mL | 1.56 µg/mL (≈ 2.73 µM) | 0.1 µg/mL (≈ 0.175 µM) | 0.2 µg/mL (≈ 0.35 µM) |  |  |  |  |  | 
11 | CN1CCC[N+]1(C)C/C=C/C1=C(C(=O)[O-])N2C(=O)[C@@H](NC(=O)/C(=N\OCF)c3nsc(N)n3)[C@H]2SC1 (single isomer, unassigned) [Example 122-A, 7β-[2-(5-Amino-1,2,4-thiadiazol-3-yl)-(Z)-2-fluoromethoxyiminoacetamido]-3-[(E)-3-(1,2-dimethyl-1-pyrazolidinio)-1-propen-1-yl]-3-cephem-4-carboxylate] | ≤ 0.025 µg/mL | ≤ 0.025 µg/mL | ≤ 0.025 µg/mL | 0.8 µg/mL (≈ 1.48 µM) | ≤ 0.025 µg/mL | 0.2 µg/mL (≈ 0.37 µM) |  |  |  |  |  | 
